Laboratory results reported in patent publication US7897563B2, “Use of oligomers and polymers for drug solubilization, stabilization, and delivery” (Soane Family Trust, priority 2001, dated 2011).

Tests used:
[1] = octanol/water, nominal temperature of 25 C; from table in CRC Handbook of Chemistry and Physics; cited from earlier work
[2] = Description: Log P values measure the partitioning of a molecule between an octanol-rich and a water-rich layer in contact with one another (see CRC Handbook of Chemistry and Physics, 79th edition, Lide, ed., pp. 16-42-16-46, CRC Press, 1998; and references within, all of which are incorporated herein by reference). Log P values are measured at a nominal temperature of 25 C. More preferably, hydrophobic means having a log P value greater than about 0.5, even more preferably a log P value greater than about 1, even more preferably a log P value greater than about 1.5, and most preferably a log P value greater than about 2.

Row | Compound | log P [1] | log P (estimate from a similar small molecule) [2]
1 | CCCCOC(C)=O [butyl acetate] | 1.82 | 
2 | poly(lactic acid) |  | approximately 0.2
